# Source: ChEMBL document CHEMBL4196024, “Discovery of 2,4,6-trisubstitued pyrido[3,4-d]pyrimidine derivatives as new EGFR-TKIs” (Eur J Med Chem, 2018)
# Active and inactive are the calls of the source. No cut-off for these calls is given here.
# How the values were obtained:
# [1] = test system: HCC827; assay: Antiproliferative activity against human HCC827 cells harboring EGFR E746-A750 deletion mutant after 72 hrs by MTT assay; type: functional, cell-based; details: HCC827, 72 h
# [2] = test system: NCI-H1975; assay: Antiproliferative activity against human NCI-H1975 cells harboring EGFR L858R/T790M double mutant after 72 hrs by MTT assay; type: functional, cell-based; details: NCI-H1975, 72 h
# [3] = test system: A549; assay: Antiproliferative activity against human A549 cells harboring wild type EGFR after 72 hrs by MTT assay; type: cell-based; details: A549, 72 h
# [4] = biological target: Epidermal growth factor receptor (Homo sapiens, UniProt P00533, C797S/L858R/T790M); assay: Inhibition of wild type EGFR L858R/T790M/C797S mutant (unknown origin) using Poly (Glu, Tyr) as substrate after 40 mins by kinase-Glo luminescence assay
# [5] = biological target: Epidermal growth factor receptor (Homo sapiens, UniProt P00533); assay: Inhibition of wild type EGFR (unknown origin) using Poly (Glu, Tyr) as substrate after 40 mins by kinase-Glo luminescence assay
# [6] = biological target: Epidermal growth factor receptor (Homo sapiens, UniProt P00533, L858R); assay: Inhibition of wild type EGFR L858R mutant (unknown origin) using Poly (Glu, Tyr) as substrate after 40 mins by kinase-Glo luminescence assay
# [7] = biological target: Epidermal growth factor receptor (Homo sapiens, UniProt P00533, L858R/T790M); assay: Inhibition of wild type EGFR L858R/T790M double mutant (unknown origin) using Poly (Glu, Tyr) as substrate after 40 mins by kinase-Glo luminescence assay
# [8] = test system: Epidermal growth factor receptor (Homo sapiens), P00533 [UNDEFINED MUTATION]; assay: Inhibition of EGFR E746-A750 deletion mutant in human HCC827 cells assessed as reduction in EGFR phosphorylation after 8 hrs by Western blot analysis; type: cell-based
# [9] = test system: Epidermal growth factor receptor (Homo sapiens), P00533 [UNDEFINED MUTATION]; assay: Inhibition of EGFR E746-A750 deletion mutant in human HCC827 cells assessed as reduction in EGFR phosphorylation at 3.33 uM after 8 hrs by Western blot analysis; type: cell-based
# [10] = test system: Epidermal growth factor receptor (Homo sapiens), P00533 [UNDEFINED MUTATION]; assay: Inhibition of EGFR E746-A750 deletion mutant in human HCC827 cells assessed as reduction in ERK phosphorylation at 3.33 uM after 8 hrs by Western blot analysis; type: cell-based
# [11] = test system: HCC827; assay: Induction of apoptosis in human HCC827 cells harboring EGFR E746-A750 deletion mutant assessed as early apoptotic cells at 3 uM after 24 hrs by Annexin V-FITC/propidium iodide staining based flow cytometry (reference value: 1.34%); type: functional
# [12] = test system: HCC827; assay: Induction of apoptosis in human HCC827 cells harboring EGFR E746-A750 deletion mutant assessed as late apoptotic cells at 3 uM after 24 hrs by Annexin V-FITC/propidium iodide staining based flow cytometry (reference value: 27.14%); type: functional
# Sequence of Epidermal growth factor receptor (Homo sapiens, UniProt P00533, L858R/T790M) (P00533 25-1210 T790M/L858R limits assumed): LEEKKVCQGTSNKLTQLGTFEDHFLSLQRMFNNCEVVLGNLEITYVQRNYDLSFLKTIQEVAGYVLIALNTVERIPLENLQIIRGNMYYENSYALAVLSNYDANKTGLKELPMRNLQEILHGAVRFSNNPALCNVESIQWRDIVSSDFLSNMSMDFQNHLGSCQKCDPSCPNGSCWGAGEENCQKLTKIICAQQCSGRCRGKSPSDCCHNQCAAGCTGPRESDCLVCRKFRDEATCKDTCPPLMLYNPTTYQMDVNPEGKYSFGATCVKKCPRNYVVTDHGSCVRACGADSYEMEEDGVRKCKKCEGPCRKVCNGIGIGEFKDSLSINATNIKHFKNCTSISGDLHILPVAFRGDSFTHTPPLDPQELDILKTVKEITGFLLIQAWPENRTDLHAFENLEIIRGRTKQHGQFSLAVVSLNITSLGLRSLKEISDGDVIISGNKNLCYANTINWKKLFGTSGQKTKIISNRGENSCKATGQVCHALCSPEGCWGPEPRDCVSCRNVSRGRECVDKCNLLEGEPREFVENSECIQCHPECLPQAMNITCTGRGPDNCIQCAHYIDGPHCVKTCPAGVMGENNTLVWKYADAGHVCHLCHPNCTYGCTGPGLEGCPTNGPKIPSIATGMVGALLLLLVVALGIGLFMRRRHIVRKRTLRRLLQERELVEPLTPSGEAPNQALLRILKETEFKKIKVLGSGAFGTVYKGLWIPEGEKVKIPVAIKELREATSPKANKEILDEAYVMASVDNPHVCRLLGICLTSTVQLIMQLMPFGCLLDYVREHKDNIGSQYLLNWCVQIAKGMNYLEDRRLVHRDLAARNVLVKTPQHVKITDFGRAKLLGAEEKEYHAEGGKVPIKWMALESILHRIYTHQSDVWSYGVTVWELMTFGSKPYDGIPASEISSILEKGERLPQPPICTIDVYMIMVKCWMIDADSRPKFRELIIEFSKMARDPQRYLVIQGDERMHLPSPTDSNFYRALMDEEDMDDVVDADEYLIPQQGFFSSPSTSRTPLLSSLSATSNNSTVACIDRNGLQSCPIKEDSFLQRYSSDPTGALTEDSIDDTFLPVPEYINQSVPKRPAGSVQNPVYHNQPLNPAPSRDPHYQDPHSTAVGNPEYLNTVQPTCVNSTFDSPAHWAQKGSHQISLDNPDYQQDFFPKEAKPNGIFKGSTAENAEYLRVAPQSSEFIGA
# Sequence of Epidermal growth factor receptor (Homo sapiens, UniProt P00533, L858R) (P00533 25-1210 L858R limits assumed): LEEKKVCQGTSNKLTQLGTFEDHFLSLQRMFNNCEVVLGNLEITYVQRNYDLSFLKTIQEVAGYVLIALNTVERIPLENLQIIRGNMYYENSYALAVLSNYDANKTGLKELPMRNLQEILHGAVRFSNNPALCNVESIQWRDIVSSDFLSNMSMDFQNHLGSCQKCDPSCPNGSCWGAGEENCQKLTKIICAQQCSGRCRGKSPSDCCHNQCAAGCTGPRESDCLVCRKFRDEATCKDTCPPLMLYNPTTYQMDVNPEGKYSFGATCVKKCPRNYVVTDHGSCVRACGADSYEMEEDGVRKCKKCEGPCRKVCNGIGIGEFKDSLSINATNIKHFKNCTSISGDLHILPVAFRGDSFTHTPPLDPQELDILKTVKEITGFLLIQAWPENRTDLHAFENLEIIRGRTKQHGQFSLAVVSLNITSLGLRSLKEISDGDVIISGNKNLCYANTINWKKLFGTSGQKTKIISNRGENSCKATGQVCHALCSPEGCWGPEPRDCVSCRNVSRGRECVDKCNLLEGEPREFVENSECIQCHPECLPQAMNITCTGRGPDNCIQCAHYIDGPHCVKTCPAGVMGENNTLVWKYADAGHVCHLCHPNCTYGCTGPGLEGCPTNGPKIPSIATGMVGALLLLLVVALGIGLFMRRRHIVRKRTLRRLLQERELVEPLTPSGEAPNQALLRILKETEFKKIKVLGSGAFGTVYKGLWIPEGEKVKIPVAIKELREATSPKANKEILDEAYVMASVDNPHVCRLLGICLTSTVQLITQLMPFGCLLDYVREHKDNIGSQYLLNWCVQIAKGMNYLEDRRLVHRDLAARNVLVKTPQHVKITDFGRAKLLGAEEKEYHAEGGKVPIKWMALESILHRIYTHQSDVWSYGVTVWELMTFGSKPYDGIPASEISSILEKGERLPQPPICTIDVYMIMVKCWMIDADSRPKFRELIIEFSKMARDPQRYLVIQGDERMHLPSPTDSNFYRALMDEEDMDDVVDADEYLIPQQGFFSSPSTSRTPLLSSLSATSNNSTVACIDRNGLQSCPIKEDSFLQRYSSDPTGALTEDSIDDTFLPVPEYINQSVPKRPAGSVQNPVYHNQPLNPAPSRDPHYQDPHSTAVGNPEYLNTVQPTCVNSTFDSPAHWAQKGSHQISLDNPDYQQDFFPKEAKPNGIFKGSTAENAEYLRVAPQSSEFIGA
# Sequence of Epidermal growth factor receptor (Homo sapiens), P00533 [UNDEFINED MUTATION] (P00533 whole entry, looked up, stated change not applied): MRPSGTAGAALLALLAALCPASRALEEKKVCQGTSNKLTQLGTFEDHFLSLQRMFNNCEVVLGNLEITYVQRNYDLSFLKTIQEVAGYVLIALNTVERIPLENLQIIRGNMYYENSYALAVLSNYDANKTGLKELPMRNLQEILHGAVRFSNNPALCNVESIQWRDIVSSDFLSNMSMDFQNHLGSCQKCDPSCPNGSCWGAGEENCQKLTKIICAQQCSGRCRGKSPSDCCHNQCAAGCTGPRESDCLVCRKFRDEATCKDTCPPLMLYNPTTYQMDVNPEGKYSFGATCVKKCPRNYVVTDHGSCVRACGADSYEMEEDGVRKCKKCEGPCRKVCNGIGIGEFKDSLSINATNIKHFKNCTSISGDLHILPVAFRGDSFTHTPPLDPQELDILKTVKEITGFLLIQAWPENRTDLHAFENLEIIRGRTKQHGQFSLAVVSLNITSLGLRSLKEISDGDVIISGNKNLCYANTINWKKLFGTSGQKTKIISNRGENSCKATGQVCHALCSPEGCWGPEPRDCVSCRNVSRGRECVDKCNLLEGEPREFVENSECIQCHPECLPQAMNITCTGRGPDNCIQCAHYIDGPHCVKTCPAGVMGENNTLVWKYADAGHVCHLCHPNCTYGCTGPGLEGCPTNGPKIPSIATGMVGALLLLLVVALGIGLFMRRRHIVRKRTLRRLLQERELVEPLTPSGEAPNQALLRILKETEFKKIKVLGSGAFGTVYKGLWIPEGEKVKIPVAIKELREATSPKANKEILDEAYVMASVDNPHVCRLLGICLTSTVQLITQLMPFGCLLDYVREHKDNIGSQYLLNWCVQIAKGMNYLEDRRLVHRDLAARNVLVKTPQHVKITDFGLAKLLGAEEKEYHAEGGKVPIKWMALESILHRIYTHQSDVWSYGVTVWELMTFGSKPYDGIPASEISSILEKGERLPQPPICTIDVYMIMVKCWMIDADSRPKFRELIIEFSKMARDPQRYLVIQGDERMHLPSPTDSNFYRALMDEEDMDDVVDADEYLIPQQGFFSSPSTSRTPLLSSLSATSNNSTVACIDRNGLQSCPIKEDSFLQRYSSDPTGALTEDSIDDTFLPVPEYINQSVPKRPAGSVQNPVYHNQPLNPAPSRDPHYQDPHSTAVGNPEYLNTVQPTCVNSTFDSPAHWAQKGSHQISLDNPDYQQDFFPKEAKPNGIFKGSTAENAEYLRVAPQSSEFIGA
# Sequence of Epidermal growth factor receptor (Homo sapiens, UniProt P00533) (P00533 whole entry): as the sequence (P00533 whole entry, looked up, stated change not applied) above
SMILES,IC50 [1] [nM],IC50 [2] [nM],IC50 [3] [nM],IC50 [4] [nM],further results
CN(CCCO)c1nc(Nc2ccc(F)cc2)nc2cnc(Nc3ccc(N4CCC(N(C)C)CC4)cn3)cc12,80,300,420,51.9,–
CN(C)C1CCN(c2ccc(Nc3cc4c(N5CCOCC5)nc(Nc5ccc(F)cc5)nc4cn3)nc2)CC1,310,1670,530,28,IC50 [5]: 1.5 nM; IC50 [6]: 2.5 nM; IC50 [7]: 28.8 nM
CN(CCO)c1nc(Nc2ccccc2)nc2cnc(Nc3ccc(N4CCC(N(C)C)CC4)cn3)cc12,240,590,690,51.3,–
CN1CCN(c2ccc(Nc3cc4c(N5CCCC5)nc(Nc5cccc(F)c5)nc4cn3)nc2)CC1,1010,> 10000,> 10000,–,–
CN1CCN(c2ccc(Nc3cc4c(N5CCCCC5)nc(Nc5ccccc5)nc4cn3)nc2)CC1,270,2050,1330,23,IC50 [5]: 1.1 nM; IC50 [6]: 1.1 nM; IC50 [7]: 45 nM
CN1CCN(c2ccc(Nc3cc4c(N(C)C)nc(Nc5ccccc5)nc4cn3)cc2)CC1,> 10000,–,–,–,–
CN1CCN(c2ccc(Nc3cc4c(N5CCCC5)nc(Nc5cnn(C)c5)nc4cn3)nc2)CC1,3660,2170,–,–,–
Cn1cc(Nc2cc3c(N4CCOCC4)nc(Nc4ccccc4)nc3cn2)cn1,> 10000,–,–,–,–
CN(C)C1CCN(c2ccc(Nc3cc4c(N5CCC(CO)CC5)nc(Nc5ccc(F)cc5)nc4cn3)nc2)CC1,44,400,1060,7.2,IC50 [5]: 10.4 nM; IC50 [6]: 1.1 nM; IC50 [7]: 34 nM; inhibition [8]: Dose-dependent effect; inhibition [9]: inactive; inhibition [10]: inactive; Activity [11]: 6.21%; Activity [12]: 74.26%
CN1CCN(c2ccc(Nc3cc4c(N5CCCC5)nc(Nc5ccccc5)nc4cn3)cc2)CC1,> 10000,–,–,–,–
CN(C)C1CCN(c2ccc(Nc3cc4c(N5CCOCC5)nc(OC5CCOCC5)nc4cn3)nc2)CC1,6910,> 10000,–,–,–
CN(C)C1CCN(c2ccc(Nc3cc4c(N5CCCC5)nc(Nc5ccccc5)nc4cn3)nc2)CC1,650,790,740,62.2,IC50 [5]: 5.5 nM; IC50 [6]: 1.6 nM; IC50 [7]: 65.6 nM
CN(C)C1CCN(c2ccc(Nc3cc4c(N5CCOCC5)nc(OCC5CCOCC5)nc4cn3)nc2)CC1,> 10000,> 10000,–,–,–
CN(C)C1CCN(c2ccc(Nc3cc4c(N5CCOCC5)nc(Nc5ccc(F)cc5F)nc4cn3)nc2)CC1,350,980,1140,53.6,IC50 [5]: 0.9 nM; IC50 [6]: 2.1 nM; IC50 [7]: 30 nM
CN(C)C1CCN(c2ccc(Nc3cc4c(N5CCOCC5)nc(NCc5ccccn5)nc4cn3)nc2)CC1,7900,> 10000,–,–,–
CN1CCN(c2ccc(Nc3cc4c(N5CCOCC5)nc(Nc5cccc(C(F)(F)F)c5)nc4cn3)nc2)CC1,> 10000,–,–,–,–
CN1CCN(c2nc(Nc3ccc(F)cc3)nc3cnc(Nc4ccc(N5CCC(N(C)C)CC5)cn4)cc23)CC1,130,550,600,34.8,–
CN1CCN(c2ccc(Nc3cc4c(N5CCCC5)nc(Nc5ccc(F)c(Cl)c5)nc4cn3)nc2)CC1,1390,520,–,–,–

SMILES,IC50 [1] [nM],IC50 [2] [nM],IC50 [3] [nM],IC50 [4] [nM],further results
CN(C)C1CCN(c2ccc(Nc3cc4c(N5CCOCC5)nc(Nc5ccc(F)c(Cl)c5)nc4cn3)nc2)CC1,390,1160,970,–,–
CN(C)C1CCN(c2ccc(Nc3cc4c(N5CCC(CO)CC5)nc(Nc5ccccc5)nc4cn3)nc2)CC1,64,420,690,82.9,IC50 [5]: 2.1 nM; IC50 [6]: 3.2 nM; IC50 [7]: 44.1 nM
CN(C)CCN(C)c1ccc(Nc2cc3c(N4CCCC4)nc(Nc4ccccc4)nc3cn2)nc1,1890,820,1300,–,–
CN1CCN(c2ccc(Nc3cc4c(N5CCOCC5)nc(Nc5cccnc5)nc4cn3)nc2)CC1,5430,–,–,–,–
CN1CCN(c2ccc(Nc3cc4c(N(C)C)nc(Nc5ccccc5)nc4cn3)nc2)CC1,1160,7350,> 10000,–,–
CN(C)C1CCN(c2ccc(Nc3cc4c(N5CCOCC5)nc(NCc5ccccc5)nc4cn3)nc2)CC1,1640,7160,–,–,–
CN(C)C1CCN(c2ccc(Nc3cc4c(N5CCOCC5)nc(NCc5cccnc5)nc4cn3)nc2)CC1,> 10000,–,–,–,–
CN(C)C1CCN(c2ccc(Nc3cc4c(N5CCOCC5)nc(Nc5ccccn5)nc4cn3)nc2)CC1,1660,2650,–,–,–
C=CC(=O)Nc1cc(Nc2nccc(-c3cn(C)c4ccccc34)n2)c(OC)cc1N(C)CCN(C)C [OSIMERTINIB],27,–,–,–,Activity [11]: 8.28%; Activity [12]: 68.1%
CN(C)C1CCN(c2ccc(Nc3cc4c(N5CCOCC5)nc(Nc5cccnc5)nc4cn3)nc2)CC1,1820,12400,–,–,–
CN(C)C1CCN(c2ccc(Nc3cc4c(N5CCOCC5)nc(Nc5cccc(C(F)(F)F)c5)nc4cn3)nc2)CC1,890,680,740,–,–
CN(C)C1CCN(c2ccc(Nc3cc4c(N5CCCCC5)nc(Nc5ccccc5)nc4cn3)nc2)CC1,240,1020,540,15,IC50 [5]: 0.9 nM; IC50 [6]: 4.9 nM; IC50 [7]: 23.2 nM
CN(C)C1CCN(c2ccc(Nc3cc4c(N5CCOCC5)nc(Nc5ccccc5)nc4cn3)nc2)CC1,110,680,550,54.1,IC50 [5]: 4.6 nM; IC50 [6]: 3.9 nM; IC50 [7]: 57.7 nM; Activity [11]: 9.32%; Activity [12]: 64.85%
CN(C)C1CCN(c2ccc(Nc3cc4c(N5CCOCC5)nc(Oc5cccnc5)nc4cn3)nc2)CC1,2510,> 10000,–,–,–
CN1CCN(c2ccc(Nc3cc4c(N5CCCC5)nc(Nc5ccccc5)nc4cn3)nc2)CC1,1350,2470,8700,–,IC50 [5]: 4.4 nM; IC50 [6]: 2.3 nM; IC50 [7]: 85 nM
CN1CCN(c2ccc(Nc3cc4c(N5CCOCC5)nc(Nc5ccccc5)nc4cn3)nc2)CC1,200,1280,1020,–,–
CN(C)CCN(C)c1nc(Nc2ccc(F)cc2)nc2cnc(Nc3ccc(N4CCC(N(C)C)CC4)cn3)cc12,450,900,830,24.7,–
